According to patent US9441016B2, “Complete genome sequence of the methanogen Methanobrevibacter ruminantium” (Pastoral Greenhouse Gas Research Ltd., priority 2009, dated 2016):

Legend:
[1] = target: 3-hydroxy-3-methylglutaryl-CoA reductase (HMGR) (Methanobrevibacter ruminantium, UniProt D3E332); test: HMGR activity assay measuring oxidation of NADPH; type: biochemical; conditions: for Km: substrate of HMGR, assays at 37° C, pH 6.5
[2] = test system: Mbb. ruminantium A1Ao ATP synthase; test: ATP hydrolysis by A1Ao ATP synthase with inhibitors (inorganic phosphate assay); type: biochemical, Methanobrevibacter ruminantium; conditions: in high concentrations
Text: Two enzyme preparations were studied. Purified ATP synthase from BL21 and recombinant enzyme expressed in E. coli DK8 membranes. Purified […] ATP synthase was examined for ATPase activity using the inorganic phosphate assay. […] TBT is a well characterized Fo and Ao channel inhibitor of ATP synthases. To examine the coupling ion used by the Mbb. ruminantium […] ATP synthase, the effect of amiloride, a known Na^+-coupled V-type ATPase and Na^+ channel inhibitor was also examined. […] E. coli DK8 (Δatp) inverted membranes containing the recombinant […]-ATPase were used to determine the effects of the inhibitors TBT (200 μM) and DCCD (250 μM) at different pH values. ATPase activity was measured in presence of 130 mM Na^+ (FIG. 30A) and in absence of Na^+ (FIG. 30B). After preincubation with the inhibitor for 20 min at room temperature ([…]), the reaction was started at 39° C. by addition of Na2-ATP or Tris-ATP to a final concentration of 2.5 mM. 0.5 mg inverted membrane vesicles was used in each end-point assay. […] FIGS. 30A and 30B). […] FIG. 30C). Amiloride inhibition of ATP hydrolysis of the Mbb. ruminantium […] ATP synthase was evaluated next. […] FIG. 30D). […] FIG. 31A). Amiloride inhibition of ATP hydrolysis of purified recombinant Mbb. ruminantium […] ATP synthase was further tested in DK8 and native membranes. […] FIG. 31B).

M. ruminantium M1 [3] = test: Stimulation of growth of M1 by alcohols; type: cell-based, Methanobrevibacter ruminantium; conditions: for culture density (OD600 nm): M1 grown on H2, compared to H2 alone
Description: M1 was grown in medium RM02 in anaerobic culture tubes (16 mm internal diameter, 18 mm outer diameter, 150 mm long; Bellco Glass, Vineland, N.J., USA), essentially as described by Balch and Wolfe, 1976. The mineral salts base of RM02 contained (per liter of medium): 1.4 g of KH2PO4, 0.6 g of (NH4)2SO4, 1.5 g of KCl, 1 ml trace element solution […] et al., 1983), 1 ml of selenite/tungstate solution ([…] and […], 1984) and 4 drops of 0.1% (w/v) resazurin solution. This solution was mixed and then boiled under O2-free 100% CO2, before being cooled in an ice bath while it was bubbled with 100% CO2. Once the medium was cool, 4.2 g of NaHCO3 and 0.5 g of L-cysteine.HCl.H2O was added per liter. The medium was dispensed into the culture tubes while being gassed with 100% CO2, at 9.5 ml of medium per tube, and the tubes sealed with blue butyl septum stoppers and aluminium seals (Bellco), with a headspace of 100% CO2. These tubes were sterilised by autoclaving for 20 min at 121° C. Before use, the tubes were stored in the dark for at least 24 h. Sodium acetate (20 mM final conc.), sodium formate (60 mM final conc.), coenzyme M (10 μM final conc.), and vitamin-supplemented clarified rumen fluid were added to sterile media, before inoculation with 0.5 ml of an actively growing culture of M. ruminantium, then gassed with H2 plus CO2 (4:1) to 180 kPa overpressure. In some experiments, the formate was omitted, and alcohols were added, as noted in the experimental descriptions accompanying the results. The culture tubes were incubated on their sides, at 39° C. in the dark, on a platform shaken at 200 rpm. Growth of M1 was followed by measuring the culture density at 600 nm by inserting the tubes directly into an Ultrospec 1100 pro UV/Vis spectrophotometer (Amersham Biosciences, Little Chalfont, Buckinghamshire, UK). […] In the experiments testing the effects of PeiR addition, the culture densities were mathematically normalised to an OD600 of 0.1 at the time the additions were made, and all other readings corrected by the same ratio. This was done to remove the effect of lack of absolute synchronicity between cultures, a common phenomenon when culturing methanogens. This normalisation was not done for experiments testing the utilisation of alcohols. Methane was measured by gas chromatography, taking a 0.3 ml sample from the culture headspace, at the pressure in the culture tube, and injecting it into an Aerograph 660 (Varian Associates, Palo Alto, Calif., USA) fitted with a Porapak Q 80/100 mesh column (Waters Corporation, Milford, Mass., USA) and a thermal conductivity detector operated at 100° C. The column was operated at room temperature with N2 as the carrier gas at 12 cm^3/min.

M. ruminantium M1 [4] = test: Effect of the lytic enzyme PeiR on M1 growth in vitro (culture density, methane); type: cell-based, Methanobrevibacter ruminantium
Description: M1 was grown in medium RM02 in anaerobic culture tubes (16 mm internal diameter, 18 mm outer diameter, 150 mm long; Bellco Glass, Vineland, N.J., USA), essentially as described by Balch and Wolfe, 1976. The mineral salts base of RM02 contained (per liter of medium): 1.4 g of KH2PO4, 0.6 g of (NH4)2SO4, 1.5 g of KCl, 1 ml trace element solution […] et al., 1983), 1 ml of selenite/tungstate solution ([…] and […], 1984) and 4 drops of 0.1% (w/v) resazurin solution. This solution was mixed and then boiled under O2-free 100% CO2, before being cooled in an ice bath while it was bubbled with 100% CO2. Once the medium was cool, 4.2 g of NaHCO3 and 0.5 g of L-cysteine.HCl.H2O was added per liter. […] In the experiments testing the effects of PeiR addition, the culture densities were mathematically normalised to an OD600 of 0.1 at the time the additions were made, and all other readings corrected by the same ratio. […] Methane was measured by gas chromatography, taking a 0.3 ml sample from the culture headspace, at the pressure in the culture tube, and injecting it into an Aerograph 660 (Varian Associates, Palo Alto, Calif., USA) fitted with a Porapak Q 80/100 mesh column (Waters Corporation, Milford, Mass., USA) and a thermal conductivity detector operated at 100° C. […]

CC[C@H](C)C(=O)O[C@H]1C[C@@H](C)C=C2C=C[C@H](C)[C@H](CC[C@@H]3C[C@@H](O)CC(=O)O3)[C@H]21 [lovastatin, reference compound]
Ki [1]: 8.5 ± 1.1 µM

CC(C)(CO[P@@](=O)(O)O[P@@](=O)(O)OC[C@H]1O[C@@H](n2cnc3c(N)ncnc32)[C@H](O)[C@@H]1OP(=O)(O)O)[C@@H](O)C(=O)NCCC(=O)NCCSC(=O)C[C@@](C)(O)CC(=O)O [HMG-CoA]
Km [1]: 12.4 ± 1.83 µM

C(=NC1CCCCC1)=NC1CCCCC1 [DCCD]
ATP hydrolysis activity, sensitivity to inhibitor [2]: sensitive

CC(C)O [isopropanol]
stimulation of growth (M. ruminantium M1 [3]; 5 to 20 mM, M1 grown on H2): no stimulation | growth (M. ruminantium M1 [3]; no H2 added): No growth occurred | methane formation (M. ruminantium M1 [3]; no H2 added): no methane was formed

ClC(Cl)Cl [Chloroform]
methane yield (M. ruminantium M1 [4]; 0.1 ml added to 10 ml culture at mid-exponential phase): similarly reduced methane yield | culture density (M. ruminantium M1 [4]; 0.1 ml added to 10 ml culture, compared with PeiR): decrease in culture density was less

CO [methanol]
culture density (OD600 nm) (M. ruminantium M1 [3]; 20 mM): increase in culture density | growth (M. ruminantium M1 [3]; no H2 added): No growth occurred | methane formation (M. ruminantium M1 [3]; no H2 added): no methane was formed

CCC(C)(C)C(=O)O[C@H]1C[C@@H](C)C=C2C=C[C@H](C)[C@H](CC[C@@H]3C[C@@H](O)CC(=O)O3)[C@H]21 [simvastatin, reference compound]
Ki [1]: 3.7 ± 0.65 µM

NC(=O)C1=CN([C@@H]2O[C@H](COP(=O)(O)OP(=O)(O)OC[C@H]3O[C@@H](n4cnc5c(N)ncnc54)[C@H](OP(=O)(O)O)[C@@H]3O)[C@@H](O)[C@H]2O)C=CC1 [NADPH]
Km [1]: 165 ± 35 µM

N=C(N)NC(=O)c1nc(Cl)c(N)nc1N [amiloride]
ATP hydrolysis activity, sensitivity to inhibitor [2]: sensitive

CCO [ethanol]
growth (M. ruminantium M1 [3]; 20 mM, M1 grown on H2): some inhibition of growth | culture density (OD600 nm) (M. ruminantium M1 [3]; 5 or 10 mM): increase in culture density | growth (M. ruminantium M1 [3]; no H2 added): No growth occurred | methane formation (M. ruminantium M1 [3]; no H2 added): no methane was formed

CCC[CH2][Sn]([CH2]CCC)[CH2]CCC [TBT, tributylin]
ATP hydrolysis activity, sensitivity to inhibitor [2]: sensitive
